# Laboratory results taken from ChEMBL document CHEMBL5214960 (J Med Chem, 2022).
# Key:
# [1] = target: Tyrosine-protein phosphatase non-receptor type 1 (Homo sapiens, UniProt P18031); test: Inhibition of PTP1B (unknown origin)
# [2] = target: T1, Low molecular weight phosphotyrosine protein phosphatase (Homo sapiens, UniProt P24666); test: Inhibition of His-tagged human LMW-PTP expressed in Escherichia coli BL21 using pNPP as substrate incubated for 10 mins by microplate reader based spectrophotometric analysis
# T1 sequence (P24666 whole entry): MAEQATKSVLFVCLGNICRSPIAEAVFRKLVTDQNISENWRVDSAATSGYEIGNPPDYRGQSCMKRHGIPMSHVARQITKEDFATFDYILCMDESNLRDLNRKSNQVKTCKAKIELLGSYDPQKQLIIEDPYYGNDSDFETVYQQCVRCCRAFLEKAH
# [3] = target: Tyrosine-protein phosphatase non-receptor type 12 (Homo sapiens, UniProt Q05209); test: Inhibition of PEST(unknown origin)
# Sequence of Tyrosine-protein phosphatase non-receptor type 12 (Q05209 whole entry): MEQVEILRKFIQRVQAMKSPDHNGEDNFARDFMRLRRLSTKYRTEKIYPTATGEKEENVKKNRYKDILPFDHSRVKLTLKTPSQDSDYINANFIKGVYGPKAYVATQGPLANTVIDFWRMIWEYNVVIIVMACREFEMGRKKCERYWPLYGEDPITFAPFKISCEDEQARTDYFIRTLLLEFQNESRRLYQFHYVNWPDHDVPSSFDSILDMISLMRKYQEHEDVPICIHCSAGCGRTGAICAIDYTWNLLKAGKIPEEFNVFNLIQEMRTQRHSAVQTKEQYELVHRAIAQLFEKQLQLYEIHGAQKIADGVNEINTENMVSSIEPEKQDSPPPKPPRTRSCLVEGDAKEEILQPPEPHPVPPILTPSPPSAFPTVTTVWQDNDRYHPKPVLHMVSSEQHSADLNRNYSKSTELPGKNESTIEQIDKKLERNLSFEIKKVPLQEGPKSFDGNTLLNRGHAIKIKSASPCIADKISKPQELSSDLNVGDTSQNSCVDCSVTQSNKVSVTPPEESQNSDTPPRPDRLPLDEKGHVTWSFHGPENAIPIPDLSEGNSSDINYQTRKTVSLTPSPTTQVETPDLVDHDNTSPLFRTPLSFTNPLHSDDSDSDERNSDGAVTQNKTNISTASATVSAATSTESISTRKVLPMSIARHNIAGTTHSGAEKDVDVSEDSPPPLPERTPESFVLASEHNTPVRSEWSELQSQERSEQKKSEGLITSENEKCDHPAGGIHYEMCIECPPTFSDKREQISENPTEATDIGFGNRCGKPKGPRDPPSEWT
# [4] = target: Receptor-type tyrosine-protein phosphatase alpha (Homo sapiens, UniProt P18433); test: Inhibition of PTPalpha (unknown origin)
# [5] = target: Receptor-type tyrosine-protein phosphatase S (Homo sapiens, UniProt Q13332); test: Inhibition of PTPsigma (unknown origin)
# Sequence of Receptor-type tyrosine-protein phosphatase S (Q13332 whole entry): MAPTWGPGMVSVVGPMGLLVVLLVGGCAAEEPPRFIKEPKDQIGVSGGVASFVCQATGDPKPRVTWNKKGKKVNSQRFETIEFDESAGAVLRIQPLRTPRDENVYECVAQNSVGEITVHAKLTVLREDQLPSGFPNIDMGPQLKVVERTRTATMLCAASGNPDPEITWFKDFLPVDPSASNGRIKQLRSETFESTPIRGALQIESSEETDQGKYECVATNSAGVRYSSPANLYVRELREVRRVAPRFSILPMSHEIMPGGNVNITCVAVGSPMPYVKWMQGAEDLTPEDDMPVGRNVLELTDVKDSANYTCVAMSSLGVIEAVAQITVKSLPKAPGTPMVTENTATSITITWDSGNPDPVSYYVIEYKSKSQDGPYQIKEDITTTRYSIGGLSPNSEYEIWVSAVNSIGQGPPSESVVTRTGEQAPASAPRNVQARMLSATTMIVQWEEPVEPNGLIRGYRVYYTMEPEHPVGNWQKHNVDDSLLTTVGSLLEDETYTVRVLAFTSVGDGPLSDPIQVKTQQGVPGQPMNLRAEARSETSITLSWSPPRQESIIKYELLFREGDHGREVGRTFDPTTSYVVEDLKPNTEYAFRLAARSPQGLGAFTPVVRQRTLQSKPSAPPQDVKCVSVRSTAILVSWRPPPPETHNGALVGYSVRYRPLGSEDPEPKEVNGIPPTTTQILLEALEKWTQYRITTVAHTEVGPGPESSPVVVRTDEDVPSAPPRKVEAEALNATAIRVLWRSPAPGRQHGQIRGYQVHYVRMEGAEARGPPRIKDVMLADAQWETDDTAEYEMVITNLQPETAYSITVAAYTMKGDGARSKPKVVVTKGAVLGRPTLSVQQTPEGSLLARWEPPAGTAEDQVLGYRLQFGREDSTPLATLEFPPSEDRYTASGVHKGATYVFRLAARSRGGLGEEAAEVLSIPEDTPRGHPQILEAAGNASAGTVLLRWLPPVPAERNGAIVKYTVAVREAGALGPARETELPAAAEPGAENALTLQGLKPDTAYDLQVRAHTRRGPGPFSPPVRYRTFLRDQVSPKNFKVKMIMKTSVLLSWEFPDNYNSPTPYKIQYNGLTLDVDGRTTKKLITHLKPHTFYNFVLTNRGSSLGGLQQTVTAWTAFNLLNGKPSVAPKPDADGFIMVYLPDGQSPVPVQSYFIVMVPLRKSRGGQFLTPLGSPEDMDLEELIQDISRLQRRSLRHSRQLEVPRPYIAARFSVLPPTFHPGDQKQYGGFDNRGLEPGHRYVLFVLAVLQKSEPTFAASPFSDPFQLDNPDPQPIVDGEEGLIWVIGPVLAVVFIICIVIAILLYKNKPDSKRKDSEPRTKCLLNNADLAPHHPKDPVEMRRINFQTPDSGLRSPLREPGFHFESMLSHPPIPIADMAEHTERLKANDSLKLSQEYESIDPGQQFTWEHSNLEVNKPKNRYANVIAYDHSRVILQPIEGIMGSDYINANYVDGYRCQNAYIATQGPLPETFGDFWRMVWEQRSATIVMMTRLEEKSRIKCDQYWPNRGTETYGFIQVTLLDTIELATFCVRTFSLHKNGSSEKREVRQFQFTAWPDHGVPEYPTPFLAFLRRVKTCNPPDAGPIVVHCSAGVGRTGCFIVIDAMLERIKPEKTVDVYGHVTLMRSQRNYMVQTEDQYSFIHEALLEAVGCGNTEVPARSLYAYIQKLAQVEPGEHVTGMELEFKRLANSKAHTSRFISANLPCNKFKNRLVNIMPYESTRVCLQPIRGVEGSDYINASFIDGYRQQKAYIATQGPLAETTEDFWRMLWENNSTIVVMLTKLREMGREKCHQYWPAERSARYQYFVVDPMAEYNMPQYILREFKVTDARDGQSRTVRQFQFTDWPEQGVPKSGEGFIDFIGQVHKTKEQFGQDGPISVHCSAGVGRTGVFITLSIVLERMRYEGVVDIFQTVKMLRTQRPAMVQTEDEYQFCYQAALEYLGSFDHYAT
# [6] = target: Receptor-type tyrosine-protein phosphatase mu (Homo sapiens, UniProt P28827); test: Inhibition of PTPmu (unknown origin)
# Sequence of Receptor-type tyrosine-protein phosphatase mu (P28827 whole entry): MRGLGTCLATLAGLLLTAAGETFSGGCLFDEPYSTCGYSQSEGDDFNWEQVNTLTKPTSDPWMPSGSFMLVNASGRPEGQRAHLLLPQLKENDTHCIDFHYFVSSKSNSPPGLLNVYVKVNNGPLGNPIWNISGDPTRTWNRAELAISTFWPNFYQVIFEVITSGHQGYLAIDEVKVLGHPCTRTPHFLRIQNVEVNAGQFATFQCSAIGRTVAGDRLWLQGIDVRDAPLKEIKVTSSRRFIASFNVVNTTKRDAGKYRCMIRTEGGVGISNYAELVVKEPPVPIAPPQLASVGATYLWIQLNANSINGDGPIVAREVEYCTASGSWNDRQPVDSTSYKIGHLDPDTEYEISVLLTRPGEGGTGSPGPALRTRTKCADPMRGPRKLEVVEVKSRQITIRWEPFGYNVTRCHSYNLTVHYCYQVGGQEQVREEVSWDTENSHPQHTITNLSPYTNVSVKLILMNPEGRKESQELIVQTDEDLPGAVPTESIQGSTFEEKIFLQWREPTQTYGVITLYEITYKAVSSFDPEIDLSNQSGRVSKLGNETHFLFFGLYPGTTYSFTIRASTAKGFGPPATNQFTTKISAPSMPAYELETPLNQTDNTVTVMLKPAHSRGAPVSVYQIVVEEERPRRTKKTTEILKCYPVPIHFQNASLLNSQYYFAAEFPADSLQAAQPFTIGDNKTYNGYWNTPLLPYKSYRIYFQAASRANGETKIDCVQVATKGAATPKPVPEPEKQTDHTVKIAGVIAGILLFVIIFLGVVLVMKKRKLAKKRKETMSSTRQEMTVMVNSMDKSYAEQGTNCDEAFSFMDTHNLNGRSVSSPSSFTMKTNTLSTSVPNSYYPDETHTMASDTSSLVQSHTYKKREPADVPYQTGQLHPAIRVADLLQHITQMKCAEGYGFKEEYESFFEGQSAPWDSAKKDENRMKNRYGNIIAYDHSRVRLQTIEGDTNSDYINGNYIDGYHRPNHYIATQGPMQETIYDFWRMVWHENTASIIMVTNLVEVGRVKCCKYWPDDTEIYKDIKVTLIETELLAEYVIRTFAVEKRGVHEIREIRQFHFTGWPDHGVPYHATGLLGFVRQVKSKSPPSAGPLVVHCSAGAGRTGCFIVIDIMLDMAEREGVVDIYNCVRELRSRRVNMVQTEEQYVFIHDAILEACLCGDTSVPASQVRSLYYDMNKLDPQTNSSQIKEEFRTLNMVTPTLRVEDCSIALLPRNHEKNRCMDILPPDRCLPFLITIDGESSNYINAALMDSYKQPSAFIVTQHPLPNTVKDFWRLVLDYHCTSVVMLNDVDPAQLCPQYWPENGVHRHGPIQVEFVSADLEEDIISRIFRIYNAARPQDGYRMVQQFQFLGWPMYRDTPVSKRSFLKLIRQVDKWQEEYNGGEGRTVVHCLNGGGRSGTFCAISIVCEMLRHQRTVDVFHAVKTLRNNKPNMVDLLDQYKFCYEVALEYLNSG
# [7] = target: Dual specificity protein phosphatase CDC14A (Homo sapiens, UniProt Q9UNH5); test: Inhibition of CDC14A (unknown origin)
# [8] = Metabolic stability in mouse hepatic microsome at 4 uM measured after 30 mins by LC-MS analysis; type: ADME; settings: liver microsomes, read-out: Stability
# [9] = Cmax in CD-1 mouse plasma at 10 mg/kg, po measured after 8 hrs by LC-MS/MS analysis; type: ADME, organism-based; parameters: dose 10 mg/kg, time 8 hrs, route po; settings: mouse, in vivo, 8 h
# [10] = Cmax in CD-1 mouse plasma at 2 mg/kg, iv measured after 8 hrs by LC-MS/MS analysis; type: ADME, organism-based; parameters: time 8 hrs, dose 2 mg/kg, route iv
# [11] = Half life in CD-1 mouse plasma at 2 mg/kg, iv measured after 8 hrs by LC-MS/MS analysis; type: ADME, organism-based; settings: mouse, in vivo, iv, 2 mg/kg, 8 h
# [12] = Half life in CD-1 mouse plasma at 10 mg/kg, po measured after 8 hrs by LC-MS/MS analysis; type: ADME, organism-based; settings: in vivo
# [13] = Cmax in Sprague-Dawley rat plasma at 3 mg/kg, po measured after 24 hrs by LC-MS/MS analysis; type: ADME, organism-based; parameters: time 24 hrs, dose 3 mg/kg, route po; settings: in vivo
# [14] = Unbound Cmax in plasma of Sprague-Dawley rat at 30 mg/kg, po measured after 24 hrs by LC-MS/MS analysis; type: ADME, organism-based; settings: in vivo
# [15] = Unbound Cmax in plasma of Sprague-Dawley rat at 3 mg/kg, po measured after 24 hrs by LC-MS/MS analysis; type: ADME, organism-based; settings: in vivo
# [16] = Tmax in Sprague-Dawley rat plasma at 30 mg/kg, po measured after 24 hrs by LC-MS/MS analysis; type: ADME, organism-based; settings: in vivo
# [17] = Half life in Sprague-Dawley rat plasma at 3 mg/kg, po measured after 24 hrs by LC-MS/MS analysis; type: ADME, organism-based; settings: in vivo
# Sequence of Tyrosine-protein phosphatase non-receptor type 1 (P18031 whole entry): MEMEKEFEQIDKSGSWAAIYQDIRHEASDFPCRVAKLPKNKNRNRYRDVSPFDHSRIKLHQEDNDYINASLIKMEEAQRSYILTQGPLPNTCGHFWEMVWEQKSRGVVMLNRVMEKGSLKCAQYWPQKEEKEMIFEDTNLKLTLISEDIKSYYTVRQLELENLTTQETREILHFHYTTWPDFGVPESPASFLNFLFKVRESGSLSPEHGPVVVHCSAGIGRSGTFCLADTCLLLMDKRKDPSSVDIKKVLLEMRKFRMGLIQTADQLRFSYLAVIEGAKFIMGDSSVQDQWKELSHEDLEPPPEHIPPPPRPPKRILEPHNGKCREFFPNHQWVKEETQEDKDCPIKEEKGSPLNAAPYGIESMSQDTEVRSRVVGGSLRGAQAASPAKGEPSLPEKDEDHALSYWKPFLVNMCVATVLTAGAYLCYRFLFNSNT
smiles,measurement,setting,value
Cc1c(Br)cc(NC(=O)NS(=O)(=O)O)cc1Br,IC50,[1],> 10 µM
same,IC50,[2],0.004 µM
same,IC50,[3],> 10 µM
same,IC50,[4],> 10 µM
same,IC50,[5],> 10 µM
same,IC50,[6],> 10 µM
same,IC50,[7],> 10 µM
same,"remaining at 0.5 h, 4 µM",[8],30%
same,Cmax,[9],9.69 µM
same,Cmax,[10],13.4 µM
same,t1/2,[11],1.41 h
same,t1/2,[12],4.2 h
same,Cmax,[13],0.877 µM
same,fCmax,[14],158 nM
same,fCmax,[15],21 nM
same,Tmax,[16],2.7 h
same,t1/2,[17],2.4 h
